Measurements published in patent US20240108623A1, “METHODS OF TREATING CANCER WITH POZIOTINIB” (BOARD OF REGENTS, THE UNIVERSITY OF TEXAS SYSTEM, priority 2021, published 2024).

Columns and labels:
Assay in all cases: Ba/F3 cell drug screening, Cell Titer Glo
Assay type in all cases: cell-based
EGFR Ex19del T790M = target: T1, EGFR Ex19del T790M (Homo sapiens, UniProt P00533, DEL746-750/T790M); conditions: Ba/F3 cells expressing EGFR Ex19del T790M; 72 hours
T1 construct: expressed in transfected cells; host or cells: Ba/F3 (retroviral transduction, pBabe-Puro based vectors)
In short: (§1)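 Seven-dose TKI treatment, 72 h, of sorted EGFR-mutant Ba/F3 cells in EGF-supplemented medium; CellTiter-Glo read-out normalized to vehicle. Curve-fit IC50 from technical triplicates across duplicate or triplicate biological repeats.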

EGFR N771dupN G724S = target: T2, EGFR N771dupN G724S (Homo sapiens, UniProt P00533, DUP771-771/G724S); conditions: Ba/F3 cells expressing EGFR N771dupN G724S; 72 hours
T2 construct: expressed in transfected cells; host or cells: Ba/F3 (retroviral, pBabe-Puro based vector; created by GeneScript from EGFR G724S, c.2313_2314insAAC)
In short: as §1

EGFR S811F = target: T3, EGFR S811F (Homo sapiens, UniProt P00533, S811F); conditions: Ba/F3 cells expressing EGFR S811F; 72 hours
T3 construct: expressed in transfected cells; host or cells: Ba/F3 (retroviral, pBabe-Puro based vector; created by GeneScript from EGFR WT)
In short: as §1

EGFR R776C = target: T4, EGFR R776C (Homo sapiens, UniProt P00533, R776C); conditions: Ba/F3 cells expressing EGFR R776C; 72 hours
T4 construct: host or cells: Ba/F3 (retroviral transduction, pBabe-Puro based vectors)
In short: as §1

EGFR Ex19del/T790M/G724S = target: T5, EGFR Ex19del/T790M/G724S (Homo sapiens, UniProt P00533, DEL746-750/G724S/T790M); conditions: Ba/F3 cells expressing EGFR Ex19del/T790M/G724S; 72 hours
T5 construct: expressed in transfected cells; host or cells: Ba/F3 (retroviral transduction, pBabe-Puro based vectors)
In short: as §1

EGFR Ex19del T854I = target: T6, EGFR Ex19del T854I (Homo sapiens, UniProt P00533, DEL746-750/T854I); conditions: Ba/F3 cells expressing EGFR Ex19del T854I; 72 hours
T6 construct: expressed in transfected cells; host or cells: Ba/F3 (murine pro-B cells), retroviral transduction with pBabe-Puro based vectors
In short: as §1

EGFR Ex19del T790M C797S = target: T7, EGFR Ex19del T790M C797S (Homo sapiens, UniProt P00533, C797S/DEL746-750/T790M); conditions: Ba/F3 cells expressing EGFR Ex19del T790M C797S; 72 hours
T7 construct: expressed in transfected cells; host or cells: Ba/F3 (retroviral transduction, pBabe-Puro based vectors)
In short: as §1

EGFR L718Q T790M = target: T8, EGFR L718Q T790M (Homo sapiens, UniProt P00533, L718Q/T790M); conditions: Ba/F3 cells expressing EGFR L718Q T790M; 72 hours
T8 construct: expressed in transfected cells; host or cells: Ba/F3 (retroviral transduction, pBabe-Puro based vectors)
In short: as §1

EGFR L718Q = target: T9, EGFR L718Q (Homo sapiens, UniProt P00533, L718Q); conditions: Ba/F3 cells expressing EGFR L718Q; 72 hours
T9 construct: expressed in transfected cells; host or cells: Ba/F3 (retroviral transduction, pBabe-Puro based vectors)
In short: as §1

EGFR K757R = target: T10, EGFR K757R (Homo sapiens, UniProt P00533, K757R); conditions: Ba/F3 cells expressing EGFR K757R; 72 hours
T10 construct: expressed in transfected cells; host or cells: Ba/F3 (retroviral transduction, pBabe-Puro based vectors)
In short: as §1

EGFR G724S = target: T11, EGFR G724S (Homo sapiens, UniProt P00533, G724S); conditions: Ba/F3 cells expressing EGFR G724S; 72 hours
T11 construct: expressed in transfected cells; host or cells: Ba/F3 (retroviral transduction, pBabe-Puro based vectors)
In short: as §1

EGFR S768dupSVD V769M = target: T12, EGFR S768dupSVD V769M (Homo sapiens, UniProt P00533, INS768MDS/V769M); conditions: Ba/F3 cells expressing EGFR S768dupSVD V769M; 72 hours
T12 construct: expressed in transfected cells; host or cells: Ba/F3 (retroviral, pBabe-Puro based vector; created by GeneScript from EGFR S768dupSVD, c.2305G > A)
In short: as §1

[1] = target: T13, EGFR L747_K754del insATSPE (Homo sapiens, UniProt P00533, DEL747-749/K754E); conditions: Ba/F3 cells expressing EGFR L747_K754del insATSPE; 72 hours
T13 construct: expressed in transfected cells; host or cells: Ba/F3 (retroviral, pBabe-Puro based vector)
In short: as §1

EGFR A763insFQEA = target: T14, EGFR A763insFQEA (Homo sapiens, UniProt P00533, INS763FQEA); conditions: Ba/F3 cells expressing EGFR A763insFQEA; 72 hours
T14 construct: expressed in transfected cells; host or cells: Ba/F3 (retroviral, pBabe-Puro based vector)
In short: as §1

SMILES: C=CC(=O)N1CCC(Oc2cc3c(Nc4ccc(Cl)c(Cl)c4F)ncnc3cc2OC)CC1 [Poziotinib]
- Response of Cells Comprising T790M-like-S EGFR Mutations to Second-Generation TKIs (EGFR Ex19del T790M): 3.423
- Response of Cells Comprising Ex20ins EGFR Mutations to Poziotinib (EGFR N771dupN G724S): 0.2167
- Response of Cells Comprising Classical-Like EGFR Mutations to Second-Generation TKIs (EGFR S811F): 0.2983
- Response of Cells Comprising PACC EGFR Mutations to Second-Generation TKIs (EGFR R776C): 0.03049
- Response of Cells Comprising T790M-like-S EGFR Mutations to Second-Generation TKIs (EGFR Ex19del/T790M/G724S): 19.53
- Response of Cells Comprising PACC EGFR Mutations to Second-Generation TKIs (EGFR Ex19del T854I): 0.008664
- Response of Cells Comprising T790M-like-R EGFR Mutations to Second-Generation TKIs (EGFR Ex19del T790M C797S): 1862
- Response of Cells Comprising T790M-like-R EGFR Mutations to Second-Generation TKIs (EGFR L718Q T790M): 6.487
- Response of Cells Comprising PACC EGFR Mutations to Second-Generation TKIs (EGFR L718Q): 0.1927
- Response of Cells Comprising PACC EGFR Mutations to Second-Generation TKIs (EGFR K757R): 0.07563
- Response of Cells Comprising PACC EGFR Mutations to Second-Generation TKIs (EGFR G724S): 0.2246
- Response of Cells Comprising Ex20ins EGFR Mutations to Poziotinib (EGFR S768dupSVD V769M): 0.07874
- Response of Cells Comprising T790M-like-S EGFR Mutations to Second-Generation TKIs [1]: 0.8493
- Response of Cells Comprising Classical-Like EGFR Mutations to Second-Generation TKIs (EGFR A763insFQEA): 0.06955
